Laboratory results taken from PubChem BioAssay AID268 (DTP/NCI, 2004).
Where “and” joins values, the source holds several entries; their conditions need not be identical. Equal values may be shown once.

Test system: CD2F1 mice, P1798 lymphosarcoma sc, tumor weight T/C
Experiment: NCI In Vivo Anticancer Drug Screen. Data for tumor model P1798 Lymphosarcoma (subcutaneous) in CD2F1 (CDF1) mice
Conditions: endpoint: mean tumor weight, higher = larger tumour
Description: The antitumor activity of compounds was measured in mice bearing transplantable tumors. Survival or tumor size were measured and the results are expressed as the measurement made in the treated group (T) divided by the measurement made in the vehicle treated control group (C). The tumor model used in this assay is P1798 Lymphosarcoma (subcutaneous) in CD2F1 (CDF1) mice

[1] = dose: 50.0 mg/kg/injection, schedule: Q01DX010 (sc), vehicle: steriod suspending solution
[2] = dose: 12.5 mg/kg/injection, schedule: Q01DX005 (sc), vehicle: steriod suspending solution
[3] = dose: 25.0 mg/kg/injection, schedule: Q01DX005 (sc), vehicle: steriod suspending solution
[4] = dose: 25.0 mg/kg/injection, schedule: Q01DX010 (sc), vehicle: steriod suspending solution
[5] = dose: 50.0 mg/kg/injection, schedule: Q01DX005 (sc), vehicle: steriod suspending solution
[6] = dose: 100.0 mg/kg/injection, schedule: Q01DX005 (sc), vehicle: steriod suspending solution
[7] = dose: 18.8 mg/kg/injection, schedule: Q01DX010 (ip), vehicle: saline
[8] = dose: 75.0 mg/kg/injection, schedule: Q01DX010 (ip), vehicle: saline

With `CN[C@H]1CCc2cc(OC)c(OC)c(OC)c2-c2ccc(OC)c(=O)cc21` the T/C (dose: 0.63 mg/kg/injection, schedule: Q01DX010 (ip), vehicle: other) was 108 % of control, the T/C (dose: 0.63 mg/kg/injection, schedule: Q01DX010 (ip), vehicle: saline) was 59 % of control and the T/C (dose: 1.25 mg/kg/injection, schedule: Q01DX010 (ip), vehicle: other) was 116 % of control. For the same compound, the T/C (dose: 1.25 mg/kg/injection, schedule: Q01DX010 (ip), vehicle: saline) was 82 % of control, the T/C (dose: 2.5 mg/kg/injection, schedule: Q01DX010 (ip), vehicle: other) was 112 % of control and the T/C (dose: 2.5 mg/kg/injection, schedule: Q01DX010 (ip), vehicle: saline) was 57 % of control. The T/C (dose: 5.0 mg/kg/injection, schedule: Q01DX010 (ip), vehicle: other) was 96 % of control and the T/C (dose: 5.0 mg/kg/injection, schedule: Q01DX010 (ip), vehicle: saline) was 32 % of control.
With `Cc1cc2nc3c(=O)[nH]c(=O)nc-3n(CC(O)C(O)C(O)C(O)CO)c2cc1C` (centres undefined) the T/C (dose: 50.0 mg/kg/injection, schedule: Q01DX010 (ip), vehicle: saline) was 86 % of control, the T/C (dose: 100.0 mg/kg/injection, schedule: Q01DX010 (ip), vehicle: saline) was 88 % of control and the T/C (dose: 200.0 mg/kg/injection, schedule: Q01DX010 (ip), vehicle: saline) was 58 % of control.
In the case of `C[C@H]1C[C@@H]2[C@H]([C@@H](O)C[C@@]3(C)[C@H]2CC[C@]3(O)C(=O)CO)[C@@]2(C)C=CC(=O)C=C12`, the T/C [1] is reported as 7 % of control.
In the case of `CC1C[C@@H]2[C@H]([C@@H](O)C[C@@]3(C)[C@H]2CC[C@]3(O)C(=O)CF)[C@@]2(C)CCC(=O)C=C12` (some centres undefined), the T/C [2] is reported as 92 % of control, the T/C (dose: 12.5 mg/kg/injection, schedule: Q01DX010 (sc), vehicle: steriod suspending solution) is reported as 54 % of control and 60 % of control and the T/C [3] is reported as 47 % of control. The T/C [4] was 57 % of control and 71 % of control, the T/C [5] was 55 % of control and the T/C [1] was 58 % of control and 65 % of control. For the same compound, the T/C (dose: 50.0 mg/kg/injection, schedule: Q03DX004 (sc), vehicle: steriod suspending solution) was 66 % of control, the T/C (dose: 75.0 mg/kg/injection, schedule: Q02DX010 (sc), vehicle: steriod suspending solution) was 100 % of control and the T/C [6] was 14 % of control. The T/C (dose: 100.0 mg/kg/injection, schedule: Q02DX010 (sc), vehicle: steriod suspending solution) was 93 % of control, the T/C (dose: 100.0 mg/kg/injection, schedule: Q03DX004 (sc), vehicle: steriod suspending solution) was 61 % of control and the T/C (dose: 150.0 mg/kg/injection, schedule: Q01DX010 (sc), vehicle: steriod suspending solution) was 118 % of control. The T/C (dose: 150.0 mg/kg/injection, schedule: Q02DX010 (sc), vehicle: steriod suspending solution) was 95 % of control and the T/C (dose: 200.0 mg/kg/injection, schedule: Q03DX004 (sc), vehicle: steriod suspending solution) was 25 % of control.
In the case of `CS(=O)(=O)OCCCl`, the T/C (dose: 9.4 mg/kg/injection, schedule: Q01DX010 (ip), vehicle: saline) is reported as 155 % of control, the T/C [7] is reported as 171 % of control and the T/C (dose: 37.5 mg/kg/injection, schedule: Q01DX010 (ip), vehicle: saline) is reported as 186 % of control. The T/C [8] was 86 % of control.
For `CN(C)c1nc(N(C)C)nc(N(C)C)n1`, the T/C [7] was 104 % of control and 87 % of control, the T/C [8] was 68 % of control and 82 % of control and the T/C (dose: 150.0 mg/kg/injection, schedule: Q01DX010 (ip), vehicle: saline) was 26 % of control.
In the case of `CN(C)CCCN1c2ccccc2Sc2ccc(C(F)(F)F)cc21`, the T/C (dose: 12.5 mg/kg/injection, schedule: Q01DX010 (ip), vehicle: saline) is reported as 55 % of control and the T/C (dose: 25.0 mg/kg/injection, schedule: Q01DX010 (ip), vehicle: saline) is reported as 19 % of control.
For `CC(=O)OCC(=O)[C@@]1(O)CC[C@H]2[C@@H]3CCC4=CC(=O)[C@H](C)C[C@]4(C)[C@@]3(F)[C@@H](O)C[C@@]21C`, the T/C (dose: 3.75 mg/kg/injection, schedule: Q01DX Z (sc), vehicle: steriod suspending solution) was 94 % of control, the T/C (dose: 6.25 mg/kg/injection, schedule: Q01DX010 (sc), vehicle: steriod suspending solution) was 111 % of control and the T/C (dose: 6.25 mg/kg/injection, schedule: Q02DX010 (sc), vehicle: steriod suspending solution) was 94 % of control. For the same compound, the T/C (dose: 7.5 mg/kg/injection, schedule: Q01DX Z (sc), vehicle: steriod suspending solution) was 111 % of control, the T/C [2] was 38 % of control and the T/C (dose: 12.5 mg/kg/injection, schedule: Q02DX010 (sc), vehicle: steriod suspending solution) was 101 % of control. For the same compound, the T/C (dose: 15.0 mg/kg/injection, schedule: Q01DX Z (sc), vehicle: steriod suspending solution) was 74 % of control, the T/C [3] was 5 % of control and the T/C [4] was 1 % of control and 2 % of control and 26 % of control. The T/C (dose: 25.0 mg/kg/injection, schedule: Q02DX010 (sc), vehicle: steriod suspending solution) was 89 % of control, the T/C (dose: 30.0 mg/kg/injection, schedule: Q01DX Z (sc), vehicle: steriod suspending solution) was 74 % of control and the T/C [5] was 2 % of control. For the same compound, the T/C (dose: 60.0 mg/kg/injection, schedule: Q01DX Z (sc), vehicle: steriod suspending solution) was 88 % of control and the T/C [6] was 1 % of control.
